Experimental data reported in patent US6358953B1, “Pterin antineoplastic agents” (priority 1998, dated 2002).

Experiments:
[1] = system: C3H/HeN-MTV+ mammary gland adenocarcinoma; conditions: oral gavage 3/16 mL of 5 mM pterin in 1.25 mM CaCl2 daily (about 7 mg/kg/day) for 8 days; Figure One
Experimental: LaRusso, P., et al. Cancer Research 50: 4900-4905 (1990). T/C is the ratio between the median tumor volume (MTV) of the Test group of tumor producing mice and the MTV of the Control group of mice. […] The median tumor volume of each group is determined, including zeros (remissions), for each day of measurement. The T/C value in percentage is an indication of antitumor effectiveness (Figure Two). A T/C equal to or less than 42% is considered significant antitumor activity. A T/C value <10% is indicative of a high degree of antitumor activity and is the level used by the National Cancer Institute to justify systematic toxicology studies preliminary to Investigational New Drug (IND) filing (termed DN-2 level activity).
The A-line at 42% represents the level of activity established by the N.C.I. for “significant antitumor activity”. The B-line at about 10% depicts the level representing a “high degree of antitumor activity”.

[2] = Treatment toxicity (body weight reduction) in athymic nude mice; format: in vivo; conditions: oral gavage once daily for 14 days; assessed from reductions in body weight
Experimental: MDA MB 231 breast cancer cells (5,000,000 cells in 100 uL of phosphate buffered saline) were injected subcutaneously into the right leg of female immunodeficient athymic nude mice. When the tumors reached a mean diameter of 3-5 mm, the mice were divided into two groups (8 mice per treatment group), and the treatment begun. The mice were treated by oral gavage once daily for 14 days with either 3/16 mL of the vehicle control (water) or with 3/16 mL of 5 mM CaCl2 .Pterin from Example 2.
(§1) Tumor dimensions and body weights were measured 4 times weekly for approximately three weeks from the start of treatment. Tumors were measured in three planes using Vernier calipers, and tumor volume (V) was calculated as follows: V=pi(x x y x z)/6, where x, y, and z are the tumor measurements minus skin thickness. The mean tumor volume was calculated at each time point. For each group, the mean of the ratio V/Vo was plotted as a function of time after treatment, and tumor growth delay calculated. Treatment toxicity was assessed from reductions in body weight after treatment. The mice were sacrificed if their tumor volumes reached greater than or equal to 1600 mm^3 or weight loss exceeded 25%.

[3] = system: MDA MB 231 breast cancer cells; test: Human breast tumor xenograft in athymic nude mice, oral gavage; format: in vivo; conditions: oral gavage once daily for 14 days, 3/16 mL, Figure Three
Excerpt: This study evaluated the activity of the test agent, CaPterin, on human mammary tumor xenografts in mice. Athymic nude (nu/nu) female mice, age 3-4 weeks, were purchased from Harlan Spreague Dawley, Inc. (Indianapolis, Ind.). The animals were housed four per cage in sterile filter-topped cages in ventilated cage racks and Microisolator™ cages (LabProducts, DE). Upon arrival, the mice were quarantined for at least four working days before use. The animal facility is AAALAC-accredited. Temperature is maintained at 72+/−5° F. and relative humidity at 35-70%; a 12-hour light/dark cycle was used. The mice were fed sterile, autoclavable, certified Purina rodent chow ad libitum. […] The water supply is analyzed quarterly for metals and trace contaminants. […]
as §1, with “The mice were sacrificed if their tumor volumes reached greater than or equal to 1600 mm^3 or weight loss exceeded 25%.” left out

[4] = pterin suspensions tested by the NIH; cited from earlier work

For CaCl2(pterin)4, which “median tumor volume (MTV) relative to controls” value [1] is on record?
Its value is “strongly regresses tumor growth relative to controls”.

For CaCl2(pterin)4 [CaPterin], which “toxicity throughout the course of treatment” value [2] is on record?
Its value is “no evidence of toxicity”.

What about the “mean growth response as relative tumor volume (V/Vo) relative to controls” value [3] of the same molecule?
Its value is “strongly regresses tumor growth relative to controls”.

For `Nc1nc2nccnc2c(=O)[nH]1` [Pterin], which antineoplastic activity [4] is on record?
The antineoplastic activity was “no significant antineoplastic activity”.
